Results published in patent US20110263629A1, “AMIDES OF DIAZABICYCLOOCTANES AND USES THEREOF” (Targacept, Inc., priority 2008, published 2011).
pKi: −log10 of the molar value. Where two headings read alike, the source gives them in different places.

Key:
human α4β2 nAChR subtype = molecular target: T1, human α4β2 nAChR subtype (Homo sapiens, UniProt P17787+P43681); assay: Radioligand binding ([3H]nicotine) at human α4β2 nAChR, SH-EP1/human α4β2 clonal cell membranes
T1 construct: expressed in transfected cells; host or cells: SH-EP1 clonal cells expressing human α4β2
T1 sequence (P43681 29-627 limits assumed): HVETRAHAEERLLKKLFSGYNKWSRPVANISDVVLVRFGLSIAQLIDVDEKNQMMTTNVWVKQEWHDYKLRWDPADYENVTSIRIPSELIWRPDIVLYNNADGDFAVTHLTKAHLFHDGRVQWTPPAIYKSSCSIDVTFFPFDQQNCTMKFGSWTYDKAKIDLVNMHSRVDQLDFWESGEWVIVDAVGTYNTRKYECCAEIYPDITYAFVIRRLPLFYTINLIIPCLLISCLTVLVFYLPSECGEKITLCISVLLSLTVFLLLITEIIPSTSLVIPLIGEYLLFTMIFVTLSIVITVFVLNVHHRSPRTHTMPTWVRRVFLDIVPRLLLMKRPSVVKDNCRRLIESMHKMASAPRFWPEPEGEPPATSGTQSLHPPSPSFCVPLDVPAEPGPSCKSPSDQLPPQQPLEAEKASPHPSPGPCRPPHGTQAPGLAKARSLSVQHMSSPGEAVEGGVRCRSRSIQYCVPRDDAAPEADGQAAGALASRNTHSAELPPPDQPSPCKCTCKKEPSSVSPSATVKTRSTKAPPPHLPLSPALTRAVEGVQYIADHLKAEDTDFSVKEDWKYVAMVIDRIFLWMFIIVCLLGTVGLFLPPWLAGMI
T1 sequence (P17787 26-502): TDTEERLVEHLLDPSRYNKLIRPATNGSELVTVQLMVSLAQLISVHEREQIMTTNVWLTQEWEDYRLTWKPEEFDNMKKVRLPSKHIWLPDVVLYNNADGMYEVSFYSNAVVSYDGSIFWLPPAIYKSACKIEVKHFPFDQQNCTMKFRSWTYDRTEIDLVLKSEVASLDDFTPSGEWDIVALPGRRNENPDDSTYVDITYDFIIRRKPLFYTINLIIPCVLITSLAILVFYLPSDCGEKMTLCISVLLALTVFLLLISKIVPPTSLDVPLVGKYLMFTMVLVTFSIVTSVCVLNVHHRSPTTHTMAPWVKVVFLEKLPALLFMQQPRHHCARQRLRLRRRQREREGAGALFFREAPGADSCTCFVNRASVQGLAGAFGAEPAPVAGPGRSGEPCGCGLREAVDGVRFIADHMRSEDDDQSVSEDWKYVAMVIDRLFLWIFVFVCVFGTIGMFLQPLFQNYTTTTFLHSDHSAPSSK
Method: Preparation of membranes from SH-EP1/human α4β2 clonal cells: Cell pellets from 40 150 mm culture dishes were pooled, and homogenized by Polytron (Kinematica GmbH, Switzerland) in 20 milliliters of ice-cold preparative buffer. The homogenate was centrifuged at 48,000 g for 20 minutes at 4° C. The resulting pellet was re-suspended in 20 mL of ice-cold preparative buffer and stored at −20° C.
(§1) On the day of the assay, the frozen membranes were thawed and spun at 48,000×g for 20 min. The supernatant was decanted and discarded. The pellet was resuspended in Dulbecco's phosphate buffered saline (PBS, Life Technologies) pH 7.4 and homogenized with the Polytron for 6 seconds. Protein concentrations were determined using a Pierce BCA Protein Assay Kit, with bovine serum albumin as the standard (Pierce Chemical Company, Rockford, Ill.).
(§2) Incubation was terminated by rapid filtration on a multi-manifold tissue harvester (Brandel, Gaithersburg, Md.) using GF/B filters presoaked in 0.33% polyethyleneimine (w/v) to reduce non-specific binding. Tissue was rinsed 3 times in PBS, pH 7.4. Scintillation fluid was added to filters containing the washed tissue and allowed to equilibrate. Filters were then counted to determine radioactivity bound to the membranes by liquid scintillation counting (2200CA Tri-Carb LSC, Packard Instruments, 50% efficiency or Wallac Trilux 1450 MicroBeta, 40% efficiency, Perkin Elmer).
(§3) Data were expressed as disintegrations per minute (DPMs). Within each assay, each point had 2-3 replicates. The replicates for each point were averaged and plotted against the log of the drug concentration. IC50, which is the concentration of the compound that produces 50% inhibition of binding, was determined by least squares non-linear regression. Ki values were calculated using the Cheng-Prussof equation (1973): […]

rat α7 nAChR subtype = molecular target: T2, rat α7 nAChR subtype (Rattus norvegicus, UniProt Q05941); assay: Radioligand binding ([3H]MLA) at α7 nAChR, rat hippocampus membranes
T2 construct: Preparation of membranes from rat hippocampus; from tissue; host or cells: rat hippocampus membranes
T2 sequence (Q05941 23-502): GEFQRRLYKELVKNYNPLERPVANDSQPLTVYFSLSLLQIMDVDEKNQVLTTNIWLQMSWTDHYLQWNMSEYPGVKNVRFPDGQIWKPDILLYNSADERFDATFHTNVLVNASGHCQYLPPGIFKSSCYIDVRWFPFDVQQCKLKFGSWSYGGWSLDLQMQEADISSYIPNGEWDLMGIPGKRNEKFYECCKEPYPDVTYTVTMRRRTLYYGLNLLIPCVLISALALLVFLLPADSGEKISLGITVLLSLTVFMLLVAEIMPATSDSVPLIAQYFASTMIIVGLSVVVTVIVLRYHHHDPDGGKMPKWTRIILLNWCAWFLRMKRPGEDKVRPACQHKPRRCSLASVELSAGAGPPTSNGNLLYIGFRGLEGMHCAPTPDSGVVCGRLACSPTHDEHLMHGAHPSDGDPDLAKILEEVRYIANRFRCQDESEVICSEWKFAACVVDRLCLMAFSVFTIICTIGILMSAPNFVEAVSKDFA
Method: Preparation of membranes from rat hippocampus: Rats (female, Sprague-Dawley), weighing 150-250 g, were maintained on a 12 h light/dark cycle and were allowed free access to water and food supplied by PMI Nutrition International, Inc. Animals were anesthetized with 70% CO2, then decapitated. Brains were removed and placed on an ice-cold platform. The hippocampus was removed and placed in 10 volumes (weight:volume) of ice-cold preparative buffer (137 mM NaCl, 10.7 mM KCl, 5.8 mM KH2PO4, 8 mM Na2HPO4, 20 mM HEPES (free acid), 5 mM iodoacetamide, 1.6 mM EDTA, pH 7.4); PMSF, dissolved in methanol to a final concentration of 100 μM, was added and the tissue suspension was homogenized by Polytron. The homogenate was centrifuged at 18,000×g for 20 min at 4° C. and the resulting pellet was re-suspended in 10 volumes of ice-cold water. After 60 min incubation on ice, a new pellet was collected by centrifugation at 18,000×g for 20 min at 4° C. The final pellet was re-suspended in 10 volumes of buffer and stored at −20° C.
On the day of the assay, tissue was thawed, centrifuged at 18,000×g for 20 min, and then re-suspended in ice-cold PBS (Dulbecco's Phosphate Buffered Saline, 138 mM NaCl, 2.67 mM KCl, 1.47 mM KH2PO4, 8.1 mM Na2HPO4, 0.9 mM CaCl2, 0.5 mM MgCl2, Invitrogen/Gibco, pH 7.4) to a final concentration of approximately 2 mg protein/mL. Protein was determined by the method of Lowry et al., J. Biol. Chem. 193: 265 (1951), herein incorporated by reference, using bovine serum albumin as the standard.
Assay: The binding of [^3H]MLA was measured using a modification of the methods of Davies et al., Neuropharmacol. 38: 679 (1999), herein incorporated by reference. [^3H]MLA (Specific Activity=25-35 Ci/mmol) was obtained from Tocris. The binding of [^3H]MLA was determined using a 2 h incubation at 21° C. Incubations were conducted in 48-well micro-titre plates and contained about 200 μg of protein per well in a final incubation volume of 300 μL. The incubation buffer was PBS and the final concentration of [^3H]MLA was 5 nM. The binding reaction was terminated by filtration of the protein containing bound ligand onto glass fiber filters (GF/B, Brandel) using a Brandel Tissue Harvester at room temperature. Filters were soaked in de-ionized water containing 0.33% polyethyleneimine to reduce non-specific binding. Each filter was washed with PBS (3×1 mL) at room temperature. Non-specific binding was determined by inclusion of 50 μM non-radioactive MLA in selected wells.
The inhibition of [^3H]MLA binding by test compounds was determined by including seven different concentrations of the test compound in selected wells. Each concentration was replicated in triplicate. IC50 values were estimated as the concentration of compound that inhibited 50 percent of specific [^3H]MLA binding. Inhibition constants (Ki values), reported in nM, were calculated from the IC50 values using the method of Cheng et al., Biochem. Pharmacol. 22: 3099-3108 (1973), herein incorporated by reference.

rat α4β2 nAChR subtype = molecular target: T3, rat α4β2 nAChR subtype (Rattus norvegicus, UniProt P09483+P12390); assay: Radioligand binding ([3H]nicotine) at rat α4β2 nAChR, rat cortex membranes
T3 construct: Preparation of membranes from rat cortex; from tissue; host or cells: rat cerebral cortex membranes
T3 sequence (P09483 31-630): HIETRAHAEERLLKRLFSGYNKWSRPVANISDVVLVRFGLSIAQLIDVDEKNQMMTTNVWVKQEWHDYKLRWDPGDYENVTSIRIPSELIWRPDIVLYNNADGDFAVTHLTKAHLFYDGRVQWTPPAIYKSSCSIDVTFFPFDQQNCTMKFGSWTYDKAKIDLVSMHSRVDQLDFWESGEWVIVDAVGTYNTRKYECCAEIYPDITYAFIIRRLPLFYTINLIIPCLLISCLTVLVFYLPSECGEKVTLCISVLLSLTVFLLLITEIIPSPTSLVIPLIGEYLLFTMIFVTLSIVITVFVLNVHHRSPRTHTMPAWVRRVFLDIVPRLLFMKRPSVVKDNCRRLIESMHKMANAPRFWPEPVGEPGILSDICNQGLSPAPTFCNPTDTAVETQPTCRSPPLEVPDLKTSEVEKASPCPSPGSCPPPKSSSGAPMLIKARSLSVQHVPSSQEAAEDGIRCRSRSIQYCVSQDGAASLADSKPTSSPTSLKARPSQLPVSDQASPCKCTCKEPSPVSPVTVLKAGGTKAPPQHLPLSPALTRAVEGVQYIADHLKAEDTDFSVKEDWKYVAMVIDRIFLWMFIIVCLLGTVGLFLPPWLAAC
T3 sequence (P12390 25-500): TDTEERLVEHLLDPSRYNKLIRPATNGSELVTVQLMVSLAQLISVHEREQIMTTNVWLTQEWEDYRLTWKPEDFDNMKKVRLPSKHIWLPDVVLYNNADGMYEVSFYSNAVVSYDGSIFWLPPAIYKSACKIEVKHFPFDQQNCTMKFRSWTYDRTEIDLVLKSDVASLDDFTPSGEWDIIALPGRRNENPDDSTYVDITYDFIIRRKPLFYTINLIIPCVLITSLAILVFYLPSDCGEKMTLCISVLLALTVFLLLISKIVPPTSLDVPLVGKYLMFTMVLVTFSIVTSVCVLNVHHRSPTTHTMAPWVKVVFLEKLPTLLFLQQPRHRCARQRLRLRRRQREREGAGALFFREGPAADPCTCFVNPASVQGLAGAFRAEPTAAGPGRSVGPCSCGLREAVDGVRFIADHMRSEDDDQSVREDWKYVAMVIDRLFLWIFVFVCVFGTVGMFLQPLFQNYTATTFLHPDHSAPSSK
Method: Preparation of membranes from rat cortex: Rats (female, Sprague-Dawley), weighing 150-250 g, were maintained on a 12 h light/dark cycle and were allowed free access to water and food supplied by PMI Nutrition International, Inc. Animals were anesthetized with 70% CO2, and then decapitated. Brains were removed and placed on an ice-cold platform. The cerebral cortex was removed and placed in 20 volumes (weight:volume) of ice-cold preparative buffer (137 mM NaCl, 10.7 mM KCl, 5.8 mM KH2PO4, 8 mM Na2HPO4, 20 mM HEPES (free acid), 5 mM iodoacetamide, 1.6 mM EDTA, pH 7.4); PMSF, dissolved in methanol to a final concentration of 100 μM, was added and the suspension was homogenized by Polytron. The homogenate was centrifuged at 18,000×g for 20 min at 4° C. and the resulting pellet was re-suspended in 20 volumes of ice-cold water. After 60 min incubation on ice, a new pellet was collected by centrifugation at 18,000×g for 20 min at 4° C. The final pellet was re-suspended in 10 volumes of buffer and stored at −20° C.
as §1, §2, §3

[1] = SH-EP1/human α4β2 cell membranes, 5 nM [3H]nicotine, read-out: Human α4β2 Ki
[2] = rat cortex membranes, 5 nM [3H]nicotine, read-out: Rat α4β2 Ki
[3] = rat hippocampus membranes, 5 nM [3H]MLA, read-out: Rat α7 Ki

Compound | pKi (human α4β2 nAChR subtype; read-out: Human α4β2 Ki) | pKi (rat α4β2 nAChR subtype; read-out: Rat α4β2 Ki) | further results
O=C(N1CC2CNC(C2)C1)C(F)(F)F (stereo not drawn) | 5.68 | 5.62 | pKi (rat α7 nAChR subtype): < 5.00
COC(=O)N1CC2CNC(C2)C1 (stereo not drawn) | 7.92 | 8.17 | 
O=C(C1CC=CC1)N1C[C@@H]2CN[C@@H](C2)C1 |  |  | pKi (human α4β2 nAChR subtype; [1]): 6.38; pKi (rat α7 nAChR subtype): 7.54; pKi (rat α4β2 nAChR subtype; [2]): 6.48
O=C(C1CCOC1)N1C[C@@H]2CN[C@@H](C2)C1 (stereo partly drawn) | 7.34 |  | pKi (rat α4β2 nAChR subtype; [2]): 6.85
CC(=O)N1C[C@@H]2CN[C@@H](C2)C1 |  |  | pKi (human α4β2 nAChR subtype; [1]): 6.14; pKi (rat α4β2 nAChR subtype; [2]): 6.24
CC(C)(C)C(=O)N1C[C@H]2CN[C@H](C2)C1 | 7.59 | 7.17 | 
CC(=O)N1C[C@H]2CN[C@H](C2)C1 | 7.47 | 7.85 | 
COC(=O)N1C[C@@H]2CN[C@@H](C2)C1 |  | 7.00 | pKi (human α4β2 nAChR subtype; [1]): 6.92
CC(C)OC(=O)N1C[C@@H]2CN[C@@H](C2)C1 |  |  | pKi (human α4β2 nAChR subtype; [1]): 6.25; pKi (rat α4β2 nAChR subtype; [2]): 6.01
COCCOC(=O)N1C[C@@H]2CN[C@@H](C2)C1 |  |  | pKi (human α4β2 nAChR subtype; [1]): 6.24; pKi (rat α4β2 nAChR subtype; [2]): 6.00
COCCOC(=O)N1C[C@H]2CN[C@H](C2)C1 |  | 7.13 | pKi (human α4β2 nAChR subtype; [1]): 6.51
O=C(Oc1ccc(F)cc1)N1C[C@H]2CN[C@H](C2)C1 |  |  | pKi (human α4β2 nAChR subtype): 6.51; pKi (rat α4β2 nAChR subtype): 7.35
C/C=C/CC(=O)N1C[C@@H]2CN[C@@H](C2)C1 | 6.66 | 6.74 | 
CCOC(=O)N1C[C@@H]2CN[C@@H](C2)C1 | 7.31 | 7.60 | 
CS(=O)(=O)N1C[C@@H]2CN[C@@H](C2)C1 | 5.64 |  | 
CC(C)S(=O)(=O)N1C[C@@H]2CN[C@@H](C2)C1 | 7.80 |  | pKi (rat α4β2 nAChR subtype; [2]): 6.12
COc1ccc(S(=O)(=O)N2C[C@@H]3CN[C@@H](C3)C2)cc1 | 6.24 | 6.12 | 
CC1(C)CC1C(=O)N1C[C@@H]2CN[C@@H](C2)C1 (stereo partly drawn) | 7.51 | 7.31 | 
O=C(C1CC12CCC2)N1C[C@@H]2CN[C@@H](C2)C1 (stereo partly drawn) | 8.64 | 8.52 | 
CCCCC(=O)N1C[C@@H]2CN[C@@H](C2)C1 | 7.11 | 7.44 | 
CC(C)OC(=O)N1C[C@H]2CN[C@H](C2)C1 | 7.36 | 7.62 | 
COC(=O)N1C[C@H]2CN[C@H](C2)C1 | 8.10 | 8.32 | 
CCNC(=O)N1C[C@@H]2CN[C@@H](C2)C1 | 6.25 | 6.80 | 
C=CCNC(=O)N1C[C@@H]2CN[C@@H](C2)C1 | 6.04 | 6.89 | 
O=C(Nc1ccc(F)cc1)N1C[C@@H]2CN[C@@H](C2)C1 | < 5.00 | 5.66 | 
C=CCNC(=S)N1C[C@@H]2CN[C@@H](C2)C1 | < 5.00 | 5.00 | 
CC(C)CC(=O)N1C[C@@H]2CN[C@@H](C2)C1 | 6.46 | 6.49 | 

Compound | pKi (human α4β2 nAChR subtype; read-out: Human α4β2 Ki) | pKi (rat α4β2 nAChR subtype; read-out: Rat α4β2 Ki) | further results
CCCOC(=O)N1C[C@@H]2CN[C@@H](C2)C1 | 7.03 | 7.37 | 
CN1C[C@H]2C[C@@H]1CN(C(=O)C1CC1)C2 | 7.74 | 7.72 | 
CC1(C)C(C(=O)N2CC3CNC(C3)C2)C1(C)C (stereo not drawn) | 5.07 |  | 
O=C(C1C[C@@H]1F)N1CC2CNC(C2)C1 (stereo partly drawn) | 7.85 | 7.66 | pKi (rat α7 nAChR subtype): 6.59
O=C(C1C[C@H]1F)N1CC2CNC(C2)C1 (stereo partly drawn) | 7.96 | 7.68 | pKi (rat α7 nAChR subtype): 6.20
O=C(CC(F)(F)F)N1C[C@@H]2CN[C@@H](C2)C1 | 7.14 |  | pKi (rat α4β2 nAChR subtype; [2]): 6.96
CCS(=O)(=O)N1C[C@@H]2CN[C@@H](C2)C1 | 5.92 |  | 
CCCS(=O)(=O)N1C[C@@H]2CN[C@@H](C2)C1 | 5.55 |  | 
CCCCS(=O)(=O)N1C[C@@H]2CN[C@@H](C2)C1 | 5.68 |  | 
O=C(C1CC1)N1CC2CNCC1C2 (stereo not drawn) | 8.47 | 8.25 | 
O=C(C1CC=CC1)N1CC2CNCC1C2 (stereo not drawn) | 7.68 |  | pKi (rat α7 nAChR subtype; [3]): 6.80; pKi (rat α4β2 nAChR subtype; [2]): 6.92
O=C(C1CC1)N1C[C@@H]2CNC[C@H]1C2 | 8.40 | 8.15 | 
O=C([C@H]1C[C@H]1F)N1C[C@@H]2CNC[C@H]1C2 | 8.43 | 8.54 | 
O=C([C@H]1C[C@@H]1F)N1C[C@@H]2CNC[C@H]1C2 | 7.96 |  | 
O=C(C1CCC1)N1C[C@@H]2CNC[C@H]1C2 | 7.64 |  | 
CCCC(=O)N1C[C@@H]2CNC[C@H]1C2 | 7.47 |  | 
CC(C)C(=O)N1C[C@@H]2CNC[C@H]1C2 | 6.23 |  | 
CCC(=O)N1C[C@@H]2CNC[C@H]1C2 | 7.57 |  | 
COC(=O)N1C[C@@H]2CNC[C@H]1C2 | 7.07 | 7.40 | 
CC(=O)N1C[C@@H]2CNC[C@H]1C2 | 5.89 |  | 
O=C(C1CC1)C1N[C@H]2CNC[C@@H]1C2 (stereo partly drawn) | 6.32 |  | pKi (rat α7 nAChR subtype): 5.89
O=C([C@@H]1C[C@H]1F)N1C[C@H]2CNC[C@@H]1C2 | 6.64 |  | 
O=C(C1CCC1)N1C[C@H]2CNC[C@@H]1C2 | 6.74 |  | pKi (rat α7 nAChR subtype): 5.82
CC(C)C(=O)N1C[C@H]2CNC[C@@H]1C2 | 6.11 |  | pKi (rat α7 nAChR subtype; [3]): 6.05
O=C(CCF)N1C[C@H]2CNC[C@@H]1C2 | 5.62 |  | pKi (rat α7 nAChR subtype; [3]): 5.64
COC(=O)N1C[C@H]2CNC[C@@H]1C2 |  |  | pKi (human α4β2 nAChR subtype; [1]): 5.24
CCOC(=O)N1C[C@H]2CNC[C@@H]1C2 | 5.85 |  | 
